For assay [1], the target named is T1, KRas-mediated phosphorylation of ERK in H358 cells (Homo sapiens, UniProt P01116, G12C).
T1 construct: pERK HTRF read-out
Briefly: Inhibition of KRas-mediated phosphorylation of ERK (HTRF), H358 cells. It counts as cell-based. To be noted: HTRF pERK, 3 h incubation.

A further assay addresses T2, KRas WT (Homo sapiens, UniProt P01116).
T2 construct: Biotinylated KRas (corresponding to amino acids 1-169, produced at Accelegan Inc.); biotin (biotinylated); purchased Accelegan Inc
The assay is described as follows: KRas binding assay, TR-FRET displacement of Cy5 labelled tracer. To be noted: 60-minute incubation at room temperature, 1% DMSO, pH 7.5. Put shortly:
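Biotinylated KRas (aa 1-169) incubated with Cy5-labelled tracer, terbium streptavidin and compound (1% DMSO final) in 50 mM HEPES pH 7.5, 5 mM MgCl2, 0.005% Tween-20, 1 mM DTT. Tracer displacement read by TR-FRET after 60 min at room temperature; POC values fitted to 4-parameter IC50 equation.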

A further assay has as its target T3, KRas G12S (Homo sapiens, UniProt P01116, G12S).
T3 construct: Biotinylated KRas (corresponding to amino acids 1-169, produced at Accelegan Inc.); biotin (biotinylated); purchased Accelegan Inc
The description is as above. To be noted: 60-minute incubation at room temperature, 1% DMSO, pH 7.5. Put shortly:
(§1)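 KRas aa 1-169, biotinylated; Tb-streptavidin donor; 1% DMSO final. Buffer: HEPES 50 mM (pH 7.5), MgCl2 5 mM, DTT 1 mM, Tween-20 0.005%. 60 min, RT. IC50 from 4-parameter fit of POC.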

Another assay has as its target T4, KRas G12C (Homo sapiens, UniProt P01116, G12C).
T4 construct: Biotinylated KRas (corresponding to amino acids 1-169, produced at Accelegan Inc.); biotin (biotinylated); purchased Accelegan Inc
The description is as above. To be noted: 60-minute incubation at room temperature, 1% DMSO, pH 7.5. An outline of the steps:
as §1

For assay [2], the target named is T5, KRas-mediated phosphorylation of ERK in A549 cells (Homo sapiens, UniProt P01116, G12S).
T5 construct: pERK HTRF read-out
T5 sequence (P01116 1-188 isoform P01116-2 G12S): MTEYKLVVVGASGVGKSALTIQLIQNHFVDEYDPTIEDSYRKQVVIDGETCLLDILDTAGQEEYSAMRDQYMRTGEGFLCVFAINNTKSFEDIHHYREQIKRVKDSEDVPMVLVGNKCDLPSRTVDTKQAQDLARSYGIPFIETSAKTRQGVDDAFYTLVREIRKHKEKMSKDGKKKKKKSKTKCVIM
The assay is described as follows: Inhibition of KRas-mediated phosphorylation of ERK (HTRF), A549 cells. Type of assay: cell-based. The note with it: HTRF pERK, 3 h incubation. (In general: In TR-FRET formats the signal depends on donor and acceptor labels being close together.)

The target in assay [3] is T6, KRas-mediated phosphorylation of ERK in MKN1 cells (Homo sapiens, UniProt P01116).
T6 construct: pERK HTRF read-out
T6 sequence (P01116 1-188 isoform P01116-2): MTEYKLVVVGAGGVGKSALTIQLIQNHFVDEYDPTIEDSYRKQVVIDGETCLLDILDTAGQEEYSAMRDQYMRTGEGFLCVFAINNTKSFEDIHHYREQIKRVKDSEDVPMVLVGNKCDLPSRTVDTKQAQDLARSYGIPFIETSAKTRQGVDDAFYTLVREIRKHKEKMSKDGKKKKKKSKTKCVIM
Briefly: Inhibition of KRas-mediated phosphorylation of ERK (HTRF), MKN1 cells. It counts as cell-based. To be noted: MKN1 cells (KRas WT); HTRF pERK; 3 h incubation. As for the experimental part:
Inhibition of KRas Phosphorylation of ERK (HTRF) by Exemplary Compounds of Formula (Ia) or (Ib)
Cisbio HTRF Advanced pERK Assay Catalog #64AERPEH • Cells: MKN1, PSN1 • Procedure: • 1. Day 1: Seed 6,000 cells/well −25 μl/well in 384-well white solid bottom plate; RPM1_10% FBS. Incubate overnight at 37 °C/5% CO2. • 2.

T1 sequence (P01116 1-188 isoform P01116-2 G12C): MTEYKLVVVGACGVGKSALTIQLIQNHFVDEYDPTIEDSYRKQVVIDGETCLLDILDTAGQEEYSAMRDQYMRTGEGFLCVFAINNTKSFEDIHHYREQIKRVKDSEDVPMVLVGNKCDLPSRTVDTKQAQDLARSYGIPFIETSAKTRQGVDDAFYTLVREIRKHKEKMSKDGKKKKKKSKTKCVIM
T3 sequence (P01116 1-169 isoform P01116-2 G12S): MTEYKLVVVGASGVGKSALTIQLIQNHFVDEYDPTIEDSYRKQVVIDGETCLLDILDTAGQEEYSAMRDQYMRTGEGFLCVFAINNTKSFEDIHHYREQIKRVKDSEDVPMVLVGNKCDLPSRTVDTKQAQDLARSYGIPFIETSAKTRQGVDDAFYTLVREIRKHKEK
T4 sequence (P01116 1-169 isoform P01116-2 G12C): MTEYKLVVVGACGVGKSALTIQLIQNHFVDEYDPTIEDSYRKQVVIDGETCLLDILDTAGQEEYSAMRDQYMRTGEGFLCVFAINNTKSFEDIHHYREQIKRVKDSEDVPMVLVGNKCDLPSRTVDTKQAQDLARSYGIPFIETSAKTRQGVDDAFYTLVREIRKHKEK
T2 sequence (P01116 1-169 isoform P01116-2): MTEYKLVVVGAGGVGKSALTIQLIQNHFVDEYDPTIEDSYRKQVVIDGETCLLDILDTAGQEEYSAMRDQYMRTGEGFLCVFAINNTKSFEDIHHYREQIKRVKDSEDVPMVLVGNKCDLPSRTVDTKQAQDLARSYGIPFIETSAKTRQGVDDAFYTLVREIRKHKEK

One may read the IC50 as the concentration needed to halve the response being measured. Low readings indicate greater potency in that assay, high ones weaker potency in that assay. Turning to `CCc1c(F)ccc2cc(O)cc(-c3ncc4c(N(C)CCN(C)C(=O)n5nccn5)nc(OC[C@@]56CCCN5C[C@H](F)C6)nc4c3F)c12` (single isomer, unassigned) [Example 207], the IC50 turned out to be 34 nM in assay [1]; 238 nM on KRas WT; 66 nM at KRas G12S; 22 nM at KRas G12C; 6650 nM in assay [2]; 1390 nM in assay [3].
For `CCc1c(F)ccc2cc(O)cc(-c3ncc4c(N(C)CCN(C)C(=O)n5ccnn5)nc(OC[C@@]56CCCN5C[C@H](F)C6)nc4c3F)c12` (single isomer, unassigned) [Example 208], the IC50 came out at 4 nM in assay [1]; 171 nM at KRas WT; 74 nM at KRas G12S; 4 nM on KRas G12C; 3980 nM in assay [2]; 854 nM in assay [3].
In the case of `CCc1c(F)ccc2cc(O)cc(-c3ncc4c(N5CCC(C(=O)n6ccc(C)n6)CC5)nc(OC[C@@]56CCCN5C[C@H](F)C6)nc4c3F)c12` [Example 1, (1-(7-(8-ethyl-7-fluoro-3-hydroxynaphthalen-1-yl)-8-fluoro-2-(((2R,7aS)-2-fluorotetrahydro-1H-pyrrolizin-7a(5H)-yl)methoxy)pyrido[4,3-d]pyrimidin-4-yl)piperidin-4-yl)(3-methyl-1H-pyrazol-1-yl)methanone], the IC50 turned out to be 3720 nM in assay [1]; 63 nM at KRas WT; 36 nM on KRas G12S; 77 nM at KRas G12C; 109 nM in assay [2]; 4000 nM in assay [3].
As to `CCc1c(F)ccc2cc(O)cc(-c3ncc4c(N5CCC(C(=O)n6cccn6)CC5)nc(OC[C@@]56CCCN5C[C@H](F)C6)nc4c3F)c12` [Example 4, (1-(7-(8-ethyl-7-fluoro-3-hydroxynaphthalen-1-yl)-8-fluoro-2-(((2R,7aS)-2-fluorotetrahydro-1H-pyrrolizin-7a(5H)-yl)methoxy)pyrido[4,3-d]pyrimidin-4-yl)piperidin-4-yl)(1H-pyrazol-1-yl)methanone], the IC50 in assay [1] is 5440 nM; at KRas WT it was 51 nM; on KRas G12S it was 9 nM; on KRas G12C, 22 nM; in assay [2] it was 69 nM; in assay [3], 2040 nM.
As to `CCc1c(F)ccc2cc(O)cc(-c3ncc4c(N5CCC(C(=O)OC)CC5)nc(OC[C@@]56CCCN5C[C@H](F)C6)nc4c3F)c12` [Example 16, methyl 1-(7-(8-ethyl-7-fluoro-3-hydroxynaphthalen-1-yl)-8-fluoro-2-(((2R,7aS)-2-fluorotetrahydro-1H-pyrrolizin-7a(5H)-yl)methoxy)pyrido[4,3-d]pyrimidin-4-yl)piperidine-4-carboxylate], the 50% inhibitory concentration (IC50) in assay [1] came to 428 nM; at KRas WT it was 23 nM; at KRas G12S it was 44 nM; on KRas G12C, 54 nM; in assay [2], 337 nM; in assay [3] it was 70 nM.
As for `CCc1c(F)ccc2cc(O)cc(-c3ncc4c(N5CCC(C(=O)Oc6ccccc6)CC5)nc(OC[C@@]56CCCN5C[C@H](F)C6)nc4c3F)c12` [Example 39, phenyl 1-(7-(8-ethyl-7-fluoro-3-hydroxynaphthalen-1-yl)-8-fluoro-2-(((2R,7aS)-2-fluorotetrahydro-1H-pyrrolizin-7a(5H)-yl)methoxy)pyrido[4,3-d]pyrimidin-4-yl)piperidine-4-carboxylate], the IC50 in assay [1] came out at 808 nM; on KRas WT, 195 nM; at KRas G12S, 1590 nM; on KRas G12C, 13 nM; in assay [2], 6550 nM; in assay [3], 1360 nM.
For the molecule `CCc1c(F)ccc2cc(O)cc(-c3ncc4c(N5CCCCC(C(=O)n6ccc(C)n6)CC5)nc(OC[C@@]56CCCN5C[C@H](F)C6)nc4c3F)c12` (stereo partly drawn) [Example 53, (1-(7-(8-ethyl-7-fluoro-3-hydroxynaphthalen-1-yl)-8-fluoro-2-(((2R,7aS)-2-fluorotetrahydro-1H-pyrrolizin-7a(5H)-yl)methoxy)pyrido[4,3-d]pyrimidin-4-yl)azocan-4-yl)(3-methyl-1H-pyrazol-1-yl)methanone], the IC50 in assay [1] was found to be 88 nM; at KRas WT it was 77 nM; at KRas G12S it was 2 nM; on KRas G12C, 7 nM; in assay [2], 16 nM; in assay [3] it was 305 nM.
In the case of `CCc1c(F)ccc2cc(O)cc(-c3ncc4c(N5CCCC(C(=O)n6ccc(C)n6)CCC5)nc(OC[C@@]56CCCN5C[C@H](F)C6)nc4c3F)c12` [Example 54, (1-(7-(8-ethyl-7-fluoro-3-hydroxynaphthalen-1-yl)-8-fluoro-2-(((2R,7aS)-2-fluorotetrahydro-1H-pyrrolizin-7a(5H)-yl)methoxy)pyrido[4,3-d]pyrimidin-4-yl)azocan-5-yl)(3-methyl-1H-pyrazol-1-yl)methanone], the IC50 in assay [1] was found to be 1420 nM; on KRas WT it was 483 nM; on KRas G12S, 266 nM; at KRas G12C, 502 nM; in assay [2], 334 nM; in assay [3] it was 2420 nM.
For the molecule `CCc1c(F)ccc2cc(O)cc(-c3ncc4c(N5CCCCCC(C(=O)n6ccc(C)n6)C5)nc(OC[C@@]56CCCN5C[C@H](F)C6)nc4c3F)c12` (stereo partly drawn) [Example 55, (1-(7-(8-ethyl-7-fluoro-3-hydroxynaphthalen-1-yl)-8-fluoro-2-(((2R,7aS)-2-fluorotetrahydro-1H-pyrrolizin-7a(5H)-yl)methoxy)pyrido[4,3-d]pyrimidin-4-yl)azocan-3-yl)(3-methyl-1H-pyrazol-1-yl)methanone], the IC50 was 90 nM in assay [1]; 7 nM on KRas WT; 28 nM on KRas G12S; 5 nM on KRas G12C; 116 nM in assay [2]; 50 nM in assay [3].
With `CCc1c(F)ccc2cc(O)cc(-c3ncc4c(N5CCC(C(=O)n6cc(C)cn6)CC5)nc(OC[C@@]56CCCN5C[C@H](F)C6)nc4c3F)c12` [Example 57, (1-(7-(8-ethyl-7-fluoro-3-hydroxynaphthalen-1-yl)-8-fluoro-2-(((2R,7aS)-2-fluorotetrahydro-1H-pyrrolizin-7a(5H)-yl)methoxy)pyrido[4,3-d]pyrimidin-4-yl)piperidin-4-yl)(4-methyl-1H-pyrazol-1-yl)methanone], the IC50 stood at 5580 nM in assay [1]; 107 nM at KRas WT; 66 nM on KRas G12S; 96 nM at KRas G12C; 200 nM in assay [2]; 8500 nM in assay [3].
Turning to `CCc1c(F)ccc2cc(O)cc(-c3ncc4c(N5CCC(C(=O)n6ccc(N(C)C)n6)CC5)nc(OC[C@@]56CCCN5C[C@H](F)C6)nc4c3F)c12` [Example 58, (3-(dimethylamino)-1H-pyrazol-1-yl)(1-(7-(8-ethyl-7-fluoro-3-hydroxynaphthalen-1-yl)-8-fluoro-2-(((2R,7aS)-2-fluorotetrahydro-1H-pyrrolizin-7a(5H)-yl)methoxy)pyrido[4,3-d]pyrimidin-4-yl)piperidin-4-yl)methanone], the 50% inhibitory concentration (IC50) in assay [1] came to 677 nM; on KRas WT, 89 nM; at KRas G12S, 221 nM; on KRas G12C, 108 nM; in assay [2], 338 nM; in assay [3], 427 nM.
